≈ marks a conversion by molar mass, not a printed value.
Legend:
Assay type in all cases: cell-based
Conditions in all cases: banded into grades
[1] = system: Aspergillus fumigatus AF210; assay: Measurement of Minimum Inhibitory Concentrations (MICs), A. fumigatus 210
Method: (§1) Between 1 and 5 mgs of compound were accurately weighed out into a sterile Eppendorf tube. The compound was dissolved in DMSO to give a solution containing 5 mg/mL. Tubes were stored at −20° C. until required. On the day of testing thawed solutions were vortex mixed to ensure homogeneity. 30 μL of solution was removed and added to 570 μL of sterile water in a separate sterile Eppendorf. The thoroughly mixed solution was used to prepare a series of doubling dilutions in water, in a deep well plate. […] replicate plates were prepared using a Minitrak by aspirating […] from each well into eleven clear polystyrene 96 well plates. Spores of Aspergillus spp. (Aspergillus fumigatus [two strains], Aspergillus terreus [two strains], Aspergillus niger and Aspergillus flavus) were harvested from cultures grown on Sabarauds agar for 5 days, and resuspended in PBS/Tween 80 to approx 1×10^7 cfu/mL. Each organism suspension was diluted in YAG medium (1% glucose, 1% ammonium chloride and 0.5% yeast extract) to 0.5-2×10^4 cfu/mL. 80 μL of an organism suspension was added to each well of the plate containing drug dilutions. This produced MIC plates with a drug range 50-0.05 mg/L and organism inocula of 1−2×10^4 cfu/mL for Aspergillus spp. All plates were incubated for 24 hrs at 35° C. Growth was assessed by monitoring the optical density at 485 nm for each well. The MIC of a compound is the lowest drug concentration that inhibits growth of an organism by >70% compared with a drug free control. MICs are recorded as mg/L. In cases where the MIC of an organism is >=0.05 mg/L the MIC is repeated using a concentration range of 0.5-0.0005 mg/L. Other growth media can be used for susceptibility testing, and the activity of the described compounds was also assessed in RPMI medium containing 2% glucose, and 0.135M MOPS buffer. MIC tests in YAG medium have more clear-cut endpoints and have slightly lower MICs than those performed in RPMI medium. The following organisms were tested: Aspergillus flavus, Aspergillus fumigatus AF293 and AF210, Aspergillus niger and Aspergillus terreus AT4 and AT49.

[2] = system: Aspergillus fumigatus AF293; assay: Measurement of Minimum Inhibitory Concentrations (MICs), A. fumigatus
Method: as §1

Aspergillus terreus AT49 = assay: Measurement of Minimum Inhibitory Concentrations (MICs), A. terreus 49
Method: as §1

Aspergillus flavus = assay: Measurement of Minimum Inhibitory Concentrations (MICs), A. flavus
Method: as §1

Aspergillus niger = assay: Measurement of Minimum Inhibitory Concentrations (MICs), A. niger
Method: as §1

Aspergillus terreus AT4 = assay: Measurement of Minimum Inhibitory Concentrations (MICs), A. terreus
Method: as §1

[3] = RPMI medium containing 2% glucose, 0.135M MOPS buffer
[4] = YAG medium, 24 hrs at 35° C., >70% growth inhibition

| SMILES | MIC [1, 3] | MIC [1, 4] | MIC [2, 3] | MIC [2, 4] | MIC (Aspergillus terreus AT49; [3]) | MIC (Aspergillus terreus AT49; [4]) | MIC (Aspergillus flavus; [3]) | MIC (Aspergillus flavus; [4]) | MIC (Aspergillus niger; [3]) | MIC (Aspergillus niger; [4]) | MIC (Aspergillus terreus AT4; [3]) | MIC (Aspergillus terreus AT4; [4]) |
| --- | --- | --- | --- | --- | --- | --- | --- | --- | --- | --- | --- | --- |
| Cc1cc(C)nc(N2CCN(c3ccc(NC(=O)C(=O)c4c(-c5ccccc5)cc5n4CCCC5)cc3Cl)CC2)c1 [Example 27, N-{3-Chloro-4-[4-(4,6-dimethyl-pyridin-2-yl)-piperazin-1-yl]-phenyl}-2-oxo-2-(2-phenyl-5,6,7,8-tetrahydro-indolizin-3-yl)-acetamide] | < 1 µg/mL | < 1 µg/mL | < 1 µg/mL | < 1 µg/mL | < 1 µg/mL | < 1 µg/mL | < 1 µg/mL | < 1 µg/mL | < 1 µg/mL | < 1 µg/mL | < 1 µg/mL | < 1 µg/mL |
| CCc1ccnc(N2CCN(c3ccc(NC(=O)C(=O)c4c(-c5ccccc5)cc5n4CCCC5)cc3)CC2)c1 [Example 17, N-{4-[4-(4-Ethyl-pyridin-2-yl)-piperazin-1-yl]-phenyl}-2-oxo-2-(2-phenyl-5,6,7,8-tetrahydro-indolizin-3-yl)-acetamide] | < 1 µg/mL | < 1 µg/mL | < 1 µg/mL | < 1 µg/mL | < 1 µg/mL | < 1 µg/mL | < 1 µg/mL | < 1 µg/mL | < 1 µg/mL | < 1 µg/mL | < 1 µg/mL | < 1 µg/mL |
| O=C(Nc1cccc2ccccc12)C(=O)c1c(-c2ccccc2)cc2n1CCCC2 [Example 28, N-Naphthalen-1-yl-2-oxo-2-(2-phenyl-5,6,7,8-tetrahydro-indolizin-3-yl)-acetamide] | > 10 µg/mL | < 1 µg/mL | > 10 µg/mL | < 1 µg/mL | < 1 µg/mL | < 1 µg/mL | < 1 µg/mL | < 1 µg/mL | < 1 µg/mL | < 1 µg/mL | < 1 µg/mL | < 1 µg/mL |
| O=C(NC1CCN(c2ccccc2)CC1)C(=O)c1c(-c2ccccc2)cc2n1CCCC2 [Example 12, 2-Oxo-N-(1-phenyl-piperidin-4-yl)-2-(2-phenyl-5,6,7,8-tetrahydro-indolizin-3-yl)-acetamide] | 1 to 10 µg/mL (≈ 2.34 to 23.4 µM) | < 1 µg/mL | 1 to 10 µg/mL (≈ 2.34 to 23.4 µM) | < 1 µg/mL | 1 to 10 µg/mL (≈ 2.34 to 23.4 µM) | < 1 µg/mL | > 10 µg/mL | > 10 µg/mL | 1 to 10 µg/mL (≈ 2.34 to 23.4 µM) | < 1 µg/mL | 1 to 10 µg/mL (≈ 2.34 to 23.4 µM) | < 1 µg/mL |
| Cc1cc(OCCOc2ccc(NC(=O)C(=O)c3c(-c4ccccc4)cc4n3CCCC4)cc2)cc(C)n1 [Example 14, N-{4-[2-(2,6-Dimethyl-pyridin-4-yloxy)-ethoxy]-phenyl}-2-oxo-2-(2-phenyl-5,6,7,8-tetrahydro-indolizin-3-yl)-acetamide] | 1 to 10 µg/mL (≈ 1.96 to 19.6 µM) | 1 to 10 µg/mL (≈ 1.96 to 19.6 µM) | 1 to 10 µg/mL (≈ 1.96 to 19.6 µM) | 1 to 10 µg/mL (≈ 1.96 to 19.6 µM) | < 1 µg/mL | < 1 µg/mL | > 10 µg/mL | 1 to 10 µg/mL (≈ 1.96 to 19.6 µM) | 1 to 10 µg/mL (≈ 1.96 to 19.6 µM) | 1 to 10 µg/mL (≈ 1.96 to 19.6 µM) | < 1 µg/mL | 1 to 10 µg/mL (≈ 1.96 to 19.6 µM) |
| Cc1cc(C)nc(N2CCN(c3ccc(NC(=O)C(=O)c4c(C5CCCC5)cc5n4CCCC5)cc3)CC2)c1 [Example 4, 2-(2-cyclopentyl-5,6,7,8-tetrahydro-indolizin-3-yl)-N-{4-[4-(4,6-dimethyl-pyridin-2-yl)-piperazin-1-yl]-phenyl}-2-oxo-acetamide] | < 1 µg/mL | < 1 µg/mL | < 1 µg/mL | < 1 µg/mL | < 1 µg/mL | < 1 µg/mL | < 1 µg/mL | < 1 µg/mL | < 1 µg/mL | < 1 µg/mL | < 1 µg/mL | < 1 µg/mL |
| Cc1cc(C)nc(N2CCN(c3ccc(NC(=O)C(=O)c4c(-c5ccccc5)cc5n4CCCC5)cc3COCCCN3CCOCC3)CC2)c1 [Example 26, N-[4-[4-(4,6-Dimethyl-pyridin-2-yl)-piperazin-1-yl]-3-(3-morpholin-4-yl-propoxymethyl)-phenyl]-2-oxo-2-(2-phenyl-5,6,7,8-tetrahydro-indolizin-3-yl)-acetamide] | > 10 µg/mL | > 10 µg/mL | > 10 µg/mL | > 10 µg/mL | > 10 µg/mL | > 10 µg/mL | > 10 µg/mL | 1 to 10 µg/mL (≈ 1.45 to 14.5 µM) | > 10 µg/mL | > 10 µg/mL | > 10 µg/mL | > 10 µg/mL |
| COc1cc(C)cc(N2CCN(c3ccc(NC(=O)C(=O)c4c(-c5ccccc5)cc5n4CCCC5)cc3)CC2)n1 [Example 13, N-{4-[4-(6-Methoxy-4-methyl-pyridin-2-yl)-piperazin-1-yl]-phenyl}-2-oxo-2-(2-phenyl-5,6,7,8-tetrahydro-indolizin-3-yl)-acetamide] | < 1 µg/mL | < 1 µg/mL | < 1 µg/mL | < 1 µg/mL | < 1 µg/mL | < 1 µg/mL | < 1 µg/mL | < 1 µg/mL | < 1 µg/mL | < 1 µg/mL | < 1 µg/mL | < 1 µg/mL |
| C=C(C)CN1CCN(c2ccc(NC(=O)C(=O)c3c(-c4ccccc4)cc4n3CCCC4)cc2)CC1 [Example 1, N-{4-[4(2-methyl-allyl)-piperazin-1-yl]-phenyl}-2-oxo-2-(2-phenyl-5,6,7,8-tetrahydro-indolizin-3-yl)-acetamide] | < 1 µg/mL | < 1 µg/mL | < 1 µg/mL | < 1 µg/mL | < 1 µg/mL | < 1 µg/mL | < 1 µg/mL | < 1 µg/mL | < 1 µg/mL | < 1 µg/mL | < 1 µg/mL | < 1 µg/mL |
| Cc1cc(C)nc(N2CCN(c3ccc(N(C)C(=O)C(=O)c4c(-c5ccccc5)cc5n4CCCC5)cc3)CC2)c1 [Example 6, N-{4-[4-(4,6-dimethyl-pyridin-2-yl)-piperazin-1-yl]-phenyl}-N-methyl-2-oxo-2-(2-phenyl-5,6,7,8-tetrahydro-indolizin-3-yl)-acetamide] | > 10 µg/mL | 1 to 10 µg/mL (≈ 1.83 to 18.3 µM) | > 10 µg/mL | 1 to 10 µg/mL (≈ 1.83 to 18.3 µM) | > 10 µg/mL | 1 to 10 µg/mL (≈ 1.83 to 18.3 µM) | > 10 µg/mL | > 10 µg/mL | > 10 µg/mL | > 10 µg/mL | > 10 µg/mL | > 10 µg/mL |
| Cc1cc(C)nc(N2CCN(c3ccc(NC(=O)C(=O)c4c(-c5ccccc5)cc5n4CCCC5)cc3O)CC2)c1 [Example 31, N-{4-[4-(4,6-Dimethyl-pyridin-2-yl)-piperazin-1-yl]-3-hydroxy-phenyl}-2-oxo-2-(2-phenyl-5,6,7,8-tetrahydro-indolizin-3-yl)-acetamide] | < 1 µg/mL | < 1 µg/mL | < 1 µg/mL | < 1 µg/mL | < 1 µg/mL | < 1 µg/mL | < 1 µg/mL | < 1 µg/mL | < 1 µg/mL | < 1 µg/mL | < 1 µg/mL | < 1 µg/mL |
| Cc1ccc(N2CCN(c3ccc(NC(=O)C(=O)c4c(-c5ccccc5)cc5n4CCCC5)cc3)CC2)nc1 [Example 16, N-{4-[4-(5-Methyl-pyridin-2-yl)-piperazin-1-yl]-phenyl}-2-oxo-2-(2-phenyl-5,6,7,8-tetrahydro-indolizin-3-yl)-acetamide] | < 1 µg/mL | < 1 µg/mL | < 1 µg/mL | < 1 µg/mL | < 1 µg/mL | < 1 µg/mL | < 1 µg/mL | < 1 µg/mL | < 1 µg/mL | < 1 µg/mL | < 1 µg/mL | < 1 µg/mL |
